Source: PubChem BioAssay (NCI)
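Abbreviation: GI50, concentration required for 50% inhibition of growth. Definition used: TGI = concentration required for complete inhibition of growth.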

Experiments:
Assay in all cases: NCI-60 cell line screen, 384-well format
HOP-62 NSCLC = test system: HOP-62 NSCLC
SK-MEL-28 melanoma = test system: SK-MEL-28 melanoma
MCF7 breast = test system: MCF7 breast
HCT-116 colon = test system: HCT-116 colon
MOLT-4 leukemia = test system: MOLT-4 leukemia
NCI-H226 lung = test system: NCI-H226 lung
HS 578T breast = test system: HS 578T breast
COLO 205 colon = test system: COLO 205 colon
KM12 colon = test system: KM12 colon
MDA-MB-468 breast = test system: MDA-MB-468 breast
PC-3 prostate = test system: PC-3 prostate
SF-295 CNS = test system: SF-295 CNS
SR leukemia = test system: SR leukemia
M14 melanoma = test system: M14 melanoma
CAKI-1 renal = test system: CAKI-1 renal
OVCAR-3 ovarian = test system: OVCAR-3 ovarian
RPMI-8226 leukemia = test system: RPMI-8226 leukemia
NCI-H322M lung = test system: NCI-H322M lung
UACC-62 melanoma = test system: UACC-62 melanoma
SNB-19 CNS = test system: SNB-19 CNS
SNB-75 CNS = test system: SNB-75 CNS
SK-OV-3 ovarian = test system: SK-OV-3 ovarian
IGROV1 ovarian = test system: IGROV1 ovarian
SF-539 CNS = test system: SF-539 CNS
T-47D breast = test system: T-47D breast
OVCAR-4 ovarian = test system: OVCAR-4 ovarian
TK-10 renal = test system: TK-10 renal
OVCAR-5 ovarian = test system: OVCAR-5 ovarian
NCI-H23 lung = test system: NCI-H23 lung
HT29 colon = test system: HT29 colon
HCC-2998 colon = test system: HCC-2998 colon
A549 NSCLC = test system: A549 NSCLC
UACC-257 melanoma = test system: UACC-257 melanoma
BT-549 breast = test system: BT-549 breast
ACHN renal = test system: ACHN renal
SF-268 CNS = test system: SF-268 CNS
NCI-H522 lung = test system: NCI-H522 lung
EKVX NSCLC = test system: EKVX NSCLC
DU-145 prostate = test system: DU-145 prostate
RXF 393 renal = test system: RXF 393 renal
NCI/ADR-RES ovarian = test system: NCI/ADR-RES ovarian
U251 glioblastoma = test system: U251 glioblastoma
A498 renal = test system: A498 renal
MALME-3M melanoma = test system: MALME-3M melanoma
OVCAR-8 ovarian = test system: OVCAR-8 ovarian
HOP-92 NSCLC = test system: HOP-92 NSCLC
NCI-H460 NSCLC = test system: NCI-H460 NSCLC
SK-MEL-5 melanoma = test system: SK-MEL-5 melanoma
MDA-MB-231 breast = test system: MDA-MB-231 breast
SN12C renal = test system: SN12C renal
MDA-MB-435 melanoma = test system: MDA-MB-435 melanoma
LOX IMVI melanoma = test system: LOX IMVI melanoma
HCT-15 colon = test system: HCT-15 colon

Structure (SMILES): COc1ccc(COc2cc3oc(=O)c4cc(C(C)O)ccc4c3cc2OC)cc1 (stereo unspecified)
- GI50 (HOP-62 NSCLC): 8.11 µM
- TGI (HOP-62 NSCLC): 24.5 µM
- GI50 (SK-MEL-28 melanoma): 55.3 µM
- TGI (SK-MEL-28 melanoma): > 100 µM
- GI50 (MCF7 breast): 5.21 µM
- TGI (MCF7 breast): 22.2 µM
- GI50 (HCT-116 colon): 9.41 µM
- TGI (HCT-116 colon): > 100 µM
- GI50 (MOLT-4 leukemia): 5.6 µM
- TGI (MOLT-4 leukemia): > 100 µM
- GI50 (NCI-H226 lung): 15.2 µM
- TGI (NCI-H226 lung): 33.8 µM
- GI50 (HS 578T breast): 5.56 µM
- TGI (HS 578T breast): 19.3 µM
- GI50 (COLO 205 colon): > 100 µM
- TGI (COLO 205 colon): > 100 µM
- GI50 (KM12 colon): 8.27 µM
- TGI (KM12 colon): > 100 µM
- GI50 (MDA-MB-468 breast): 4.9 µM
- TGI (MDA-MB-468 breast): 25.2 µM
- GI50 (PC-3 prostate): 24.9 µM
- TGI (PC-3 prostate): 93.1 µM
- GI50 (SF-295 CNS): 10.4 µM
- TGI (SF-295 CNS): 30.6 µM
- GI50 (SR leukemia): 1.87 µM
- TGI (SR leukemia): 5.69 µM
- GI50 (M14 melanoma): 8.95 µM
- TGI (M14 melanoma): > 100 µM
- GI50 (CAKI-1 renal): 18.6 µM
- TGI (CAKI-1 renal): 60.8 µM
- GI50 (OVCAR-3 ovarian): 10.1 µM
- TGI (OVCAR-3 ovarian): 24.7 µM
- GI50 (RPMI-8226 leukemia): 16.3 µM
- TGI (RPMI-8226 leukemia): > 100 µM
- GI50 (NCI-H322M lung): 20.4 µM
- TGI (NCI-H322M lung): 71.4 µM
- GI50 (UACC-62 melanoma): 8.49 µM
- TGI (UACC-62 melanoma): 22.8 µM
- GI50 (SNB-19 CNS): 7.73 µM
- TGI (SNB-19 CNS): 20.8 µM
- GI50 (SNB-75 CNS): 6.65 µM
- TGI (SNB-75 CNS): 20.3 µM
- GI50 (SK-OV-3 ovarian): 3.89 µM
- TGI (SK-OV-3 ovarian): 21.2 µM
- GI50 (IGROV1 ovarian): 15.3 µM
- TGI (IGROV1 ovarian): 35.7 µM
- GI50 (SF-539 CNS): 7.79 µM
- TGI (SF-539 CNS): 20.6 µM
- GI50 (T-47D breast): 10.6 µM
- TGI (T-47D breast): 61.5 µM
- GI50 (OVCAR-4 ovarian): 3.41 µM
- TGI (OVCAR-4 ovarian): 12.3 µM
- GI50 (TK-10 renal): 10.5 µM
- TGI (TK-10 renal): 25.6 µM
- GI50 (OVCAR-5 ovarian): 61.2 µM
- TGI (OVCAR-5 ovarian): > 100 µM
- GI50 (NCI-H23 lung): 11.9 µM
- TGI (NCI-H23 lung): 36.9 µM
- GI50 (HT29 colon): 6.91 µM
- TGI (HT29 colon): > 100 µM
- GI50 (HCC-2998 colon): 14.6 µM
- TGI (HCC-2998 colon): > 100 µM
- GI50 (A549 NSCLC): 18.6 µM
- TGI (A549 NSCLC): > 100 µM
- GI50 (UACC-257 melanoma): 24.3 µM
- TGI (UACC-257 melanoma): 94.6 µM
- GI50 (BT-549 breast): 6.81 µM
- TGI (BT-549 breast): 20.5 µM
- GI50 (ACHN renal): 23 µM
- TGI (ACHN renal): 61.2 µM
- GI50 (SF-268 CNS): 4.6 µM
- TGI (SF-268 CNS): 16 µM
- GI50 (NCI-H522 lung): 5.04 µM
- TGI (NCI-H522 lung): 16.4 µM
- GI50 (EKVX NSCLC): 12.2 µM
- TGI (EKVX NSCLC): 43.2 µM
- GI50 (DU-145 prostate): 41.6 µM
- TGI (DU-145 prostate): > 100 µM
- GI50 (RXF 393 renal): 5.55 µM
- TGI (RXF 393 renal): 19.5 µM
- GI50 (NCI/ADR-RES ovarian): 4.8 µM
- TGI (NCI/ADR-RES ovarian): 59.4 µM
- GI50 (U251 glioblastoma): 7.43 µM
- TGI (U251 glioblastoma): 24.8 µM
- GI50 (A498 renal): 12.2 µM
- TGI (A498 renal): 35 µM
- GI50 (MALME-3M melanoma): 15.8 µM
- TGI (MALME-3M melanoma): > 100 µM
- GI50 (OVCAR-8 ovarian): 12.6 µM
- TGI (OVCAR-8 ovarian): 54.2 µM
- GI50 (HOP-92 NSCLC): 11.3 µM
- TGI (HOP-92 NSCLC): 30.1 µM
- GI50 (NCI-H460 NSCLC): 5.65 µM
- TGI (NCI-H460 NSCLC): 85.9 µM
- GI50 (SK-MEL-5 melanoma): 3.62 µM
- TGI (SK-MEL-5 melanoma): 12.5 µM
- GI50 (MDA-MB-231 breast): 20.3 µM
- TGI (MDA-MB-231 breast): 77.5 µM
- GI50 (SN12C renal): 20 µM
- TGI (SN12C renal): 90.1 µM
- GI50 (MDA-MB-435 melanoma): 2.09 µM
- TGI (MDA-MB-435 melanoma): 4.71 µM
- GI50 (LOX IMVI melanoma): 17 µM
- TGI (LOX IMVI melanoma): > 100 µM
- GI50 (HCT-15 colon): 3.57 µM
- TGI (HCT-15 colon): > 100 µM
